Structures can show the parent of a compound that is named as a salt.
Each molecule was assayed against T1, IκBα-kinase complex (Homo sapiens, UniProt O14920+O15111) (assay: IkB-Kinase ELISA). Conditions: IkB-kinase IC50.
T1 construct: endogenous in cells; host or cells: HeLa S3 cell extract, S100 fraction; ammonium sulfate precipitation and Superose-6 size exclusion
Assay type: biochemical
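Note: substrate phosphopeptide captured on Protein-A plates, detected with Streptavidin-HRP and TMB absorbance at 450 nm, activity read from a synthetic phosphopeptide standard curve.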

T1 sequence (O14920 whole entry): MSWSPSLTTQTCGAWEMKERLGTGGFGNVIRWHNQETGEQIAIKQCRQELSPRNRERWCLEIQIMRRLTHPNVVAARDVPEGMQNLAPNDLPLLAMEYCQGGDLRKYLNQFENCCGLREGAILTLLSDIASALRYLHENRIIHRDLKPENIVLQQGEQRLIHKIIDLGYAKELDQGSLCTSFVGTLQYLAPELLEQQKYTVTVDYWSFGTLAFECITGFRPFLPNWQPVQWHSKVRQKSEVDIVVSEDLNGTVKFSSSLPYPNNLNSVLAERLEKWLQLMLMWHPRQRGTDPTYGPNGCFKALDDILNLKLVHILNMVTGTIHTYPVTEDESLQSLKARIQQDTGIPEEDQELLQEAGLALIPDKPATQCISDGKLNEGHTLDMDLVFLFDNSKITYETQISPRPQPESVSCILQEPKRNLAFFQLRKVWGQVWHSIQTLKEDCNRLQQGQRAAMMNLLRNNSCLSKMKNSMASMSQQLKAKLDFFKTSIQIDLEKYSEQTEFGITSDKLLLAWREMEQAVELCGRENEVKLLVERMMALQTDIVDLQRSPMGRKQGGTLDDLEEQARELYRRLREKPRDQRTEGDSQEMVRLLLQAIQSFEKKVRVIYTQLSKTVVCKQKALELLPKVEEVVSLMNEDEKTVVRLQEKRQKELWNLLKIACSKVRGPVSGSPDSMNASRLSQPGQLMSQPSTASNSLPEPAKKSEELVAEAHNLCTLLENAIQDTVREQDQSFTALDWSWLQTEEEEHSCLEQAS
T1 sequence (O15111 whole entry): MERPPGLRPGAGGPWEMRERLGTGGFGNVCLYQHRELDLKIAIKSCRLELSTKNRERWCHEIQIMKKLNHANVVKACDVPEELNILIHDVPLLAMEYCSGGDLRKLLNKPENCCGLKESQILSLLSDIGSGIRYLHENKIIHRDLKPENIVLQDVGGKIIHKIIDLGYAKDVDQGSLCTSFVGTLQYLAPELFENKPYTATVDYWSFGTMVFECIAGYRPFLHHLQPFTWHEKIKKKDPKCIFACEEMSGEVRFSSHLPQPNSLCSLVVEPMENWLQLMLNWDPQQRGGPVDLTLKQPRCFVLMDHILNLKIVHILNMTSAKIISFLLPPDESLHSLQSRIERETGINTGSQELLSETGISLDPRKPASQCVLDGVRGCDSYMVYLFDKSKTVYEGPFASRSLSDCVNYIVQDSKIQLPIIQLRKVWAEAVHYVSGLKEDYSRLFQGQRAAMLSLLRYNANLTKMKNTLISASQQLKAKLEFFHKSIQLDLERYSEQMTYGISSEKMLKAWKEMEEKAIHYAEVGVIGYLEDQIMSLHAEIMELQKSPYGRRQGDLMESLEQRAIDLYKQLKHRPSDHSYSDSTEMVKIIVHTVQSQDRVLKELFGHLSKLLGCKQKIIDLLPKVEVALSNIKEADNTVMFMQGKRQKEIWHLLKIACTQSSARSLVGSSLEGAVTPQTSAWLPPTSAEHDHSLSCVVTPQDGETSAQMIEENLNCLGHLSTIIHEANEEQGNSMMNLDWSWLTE
T1 sequence (Q9Y6K9 whole entry partner): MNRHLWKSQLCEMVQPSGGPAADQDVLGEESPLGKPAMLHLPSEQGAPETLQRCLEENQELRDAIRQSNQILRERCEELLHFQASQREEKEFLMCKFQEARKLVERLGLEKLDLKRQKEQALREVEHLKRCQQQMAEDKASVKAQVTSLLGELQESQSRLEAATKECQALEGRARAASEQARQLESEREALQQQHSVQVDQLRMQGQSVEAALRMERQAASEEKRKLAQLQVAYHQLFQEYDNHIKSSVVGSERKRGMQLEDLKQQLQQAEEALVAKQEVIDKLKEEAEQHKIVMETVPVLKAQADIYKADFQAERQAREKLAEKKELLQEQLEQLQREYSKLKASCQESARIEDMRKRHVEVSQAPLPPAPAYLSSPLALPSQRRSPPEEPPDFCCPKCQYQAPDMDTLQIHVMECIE

SMILES	IC50 [nM]
CN(C)c1cc(Cl)cc2c1[nH]c1cnccc12 [Example 44, trifluoroacetate]	2000
Clc1cc2c([nH]c3cnccc32)c(Cl)c1OCC1CCCCC1 [Example 96]	1300

Same assay, conditions: activated IκBα kinase complex from HeLa S3 cell extracts; ELISA; read-out: IkB-kinase IC50

SMILES	IC50 [nM]
Brc1ccc2[nH]c3cnccc3c2c1 [Example 1]	400
CS(=O)(=O)n1c2ccc(Br)cc2c2ccncc21 [Example 10]	400
Cn1c2ccc(Br)cc2c2ccncc21 [Example 11]	700
O=[N+]([O-])c1cc(Cl)cc2c1[nH]c1cnccc12 [Example 14]	4000
O=C(N1CCOCC1)n1c2ccc(Br)cc2c2ccncc21 [Example 17]	5000
CCOC(=O)Cn1c2ccc(Cl)cc2c2ccncc21 [Example 18]	23000
NC(=O)Cn1c2ccc(Cl)cc2c2ccncc21 [Example 22]	15000
Cc1nccc2c1[nH]c1cc(OCC(=O)OC(C)(C)C)ccc12 [Example 25]	31000
Cc1nccc2c1[nH]c1cc(OCc3ccccc3)ccc12 [Example 26]	12000
CCOc1ccc2c(c1)[nH]c1c(C)nccc12 [Example 27]	4500
Cc1nccc2c1[nH]c1ccc(Br)cc12 [Example 28]	11000
CC(=O)Oc1ccc2c(c1)[nH]c1c(C)nccc12 [Example 29]	40000
Fc1ccc2c(c1)[nH]c1cnccc12 [Example 31]	3300
COc1cc2[nH]c3c(C)nccc3c2cc1Br [Example 32]	4600
Fc1cc2[nH]c3cnccc3c2cc1Cl [Example 34]	1000
COc1ccc2c([nH]c3cnccc32)c1Cl [Example 36, trifluoroacetate]	1400
COc1c(Cl)cc2c([nH]c3cnccc32)c1Cl [Example 37, trifluoroacetate]	150
Oc1c(Cl)cc2c([nH]c3cnccc32)c1Cl [Example 38]	11000
CCOc1c(Cl)cc2c([nH]c3cnccc32)c1Cl [Example 39]	100

SMILES	IC50 [nM]
Fc1cc2[nH]c3cnccc3c2cc1Cl [Example 40, trifluoroacetate]	2000
CNc1cc(Cl)cc2c1[nH]c1cnccc12 [Example 43, trifluoroacetate]	1000
CS(=O)(=O)Nc1cc(Cl)cc2c1[nH]c1cnccc12 [Example 45, trifluoroacetate]	8300
CC(=O)N(C)c1cc(Cl)cc2c1[nH]c1cnccc12 [Example 48, trifluoroacetate]	4000
COCC(=O)Nc1cc(Cl)cc2c1[nH]c1cnccc12 [Example 51, trifluoroacetate]	600
CC(C)CC(=O)Nc1cc(Cl)cc2c1[nH]c1cnccc12 [Example 55, trifluoroacetate]	800
CC(C)(C)C(=O)Nc1cc(Cl)cc2c1[nH]c1cnccc12 [Example 57]	4300
O=C(Oc1c(Cl)cc2c([nH]c3cnccc32)c1Cl)N1CCOCC1 [Example 59]	3200
O=C(Nc1cc(Cl)cc2c1[nH]c1cnccc12)c1cccnc1 [Example 60, N-(6-Chloro-9H-β-carbolin-8-yl)-nicotinamide]	52
O=C(c1cccnc1)N1CCn2c3cnccc3c3cc(Cl)cc1c32 [Example 69]	3000
COc1ccc(C(=O)Nc2cc(Cl)cc3c2[nH]c2cnccc23)cc1OC [Example 71]	3000
O=C(Nc1cc(Cl)cc2c1[nH]c1cnccc12)c1ccc(C(F)(F)F)cc1 [Example 74]	3800
Cc1oc(C(F)(F)F)cc1C(=O)Nc1cc(Cl)cc2c1[nH]c1cnccc12 [Example 77]	4400
O=C(Nc1cc(Cl)cc2c1[nH]c1cnccc12)c1ccc(F)c(F)c1 [Example 82, N-(6-Chloro-9H-β-carbolin-8-yl)-3,4-difluoro-benzamide]	150
O=C(COc1ccccc1)Nc1cc(Cl)cc2c1[nH]c1cnccc12 [Example 100]	1500
CC(=O)Oc1c(Cl)cc2c([nH]c3cnccc32)c1Cl [Example 101]	1800
Cc1cc(C(=O)Nc2cc(Cl)cc3c2[nH]c2cnccc23)n(C)n1 [Example 106]	600
O=C(Nc1c(O)c(Cl)cc2c1[nH]c1cnccc12)c1cccnc1 [Example 115]	4600

Second part, the molecule after the results:

IC50 [nM]	SMILES
400	CC(=O)n1c2ccc(Br)cc2c2ccncc21 [Example 2]
200	Clc1cc(Cl)c2[nH]c3cnccc3c2c1 [Example 9]
800	Nc1cc(Cl)cc2c1[nH]c1cnccc12 [Example 15]
3000	OCCn1c2ccc(Cl)cc2c2ccncc21 [Example 19]
600	COc1cccc(C(=O)Nc2cc(Cl)cc3c2[nH]c2cnccc23)c1 [Example 52, 7-chloro-9-(3-methoxybenzoxylamino)-β-carboline trifluoroacetate]
1400	COc1ccc(C(=O)Nc2cc(Cl)cc3c2[nH]c2cnccc23)cc1 [Example 53, 7-chloro-9-(4-methoxybenzoxylamino)-β-carboline trifluoroacetate]
270	O=C(Nc1cc(Cl)cc2c1[nH]c1cnccc12)c1ccncc1 [Example 56]
330	CC(C)(C)C(=O)Oc1c(Cl)cc2c([nH]c3cnccc32)c1Cl [Example 58]
940	O=C(Nc1cc(Cl)cc2c1[nH]c1cnccc12)c1ccccc1F [Example 61]
380	O=C(Nc1cc(Cl)cc2c1[nH]c1cnccc12)c1ccccc1F [Example 62]
1300	COc1cc2[nH]c3cnccc3c2cc1[N+](=O)[O-] [Example 63]
110	Clc1cc2c([nH]c3cnccc32)c(Cl)c1OCC1CC1 [Example 64]
100	Clc1cc2c([nH]c3cnccc32)c(Cl)c1OCC1CC1 [Example 65]
700	COc1cc2[nH]c3cnccc3c2cc1Cl [Example 66]
500	COc1c(Cl)cc2c([nH]c3cnccc32)c1N [Example 67]
160	COc1c(Cl)cc2c([nH]c3cnccc32)c1NC(=O)c1cccnc1 [Example 68, N-(6-Chloro-7-methoxy-9H-β-carbolin-8-yl)-nicotinamide]
360	COCOc1c(Cl)cc2c([nH]c3cnccc32)c1Cl [Example 70]
580	N#Cc1cccc(C(=O)Nc2cc(Cl)cc3c2[nH]c2cnccc23)c1 [Example 72]
400	N#Cc1ccc(C(=O)Nc2cc(Cl)cc3c2[nH]c2cnccc23)cc1 [Example 73]
290	O=C(Nc1cc(Cl)cc2c1[nH]c1cnccc12)c1ccco1 [Example 75]
900	O=C(Nc1cc(Cl)cc2c1[nH]c1cnccc12)c1cccs1 [Example 76]
2300	Cn1nc(C(C)(C)C)cc1C(=O)Nc1cc(Cl)cc2c1[nH]c1cnccc12 [Example 78]
180	O=C(Nc1cc(Cl)cc2c1[nH]c1cnccc12)c1ccno1 [Example 79]
310	Cc1cc(C(=O)Nc2cc(Cl)cc3c2[nH]c2cnccc23)no1 [Example 80]
250	Clc1cc2c([nH]c3cnccc32)c(Cl)c1OCc1ccccc1 [Example 81]
60	O=C(Nc1cc(Cl)cc2c1[nH]c1cnccc12)c1ccc(Cl)nc1 [Example 83, 6-Chloro-N-(6-chloro-9H-β-carbolin-8-yl)-nicotinamide]

IC50 [nM]	SMILES
100	CC(C)Oc1c(Cl)cc2c([nH]c3cnccc32)c1Cl [Example 84]
200	CC(C)COc1c(Cl)cc2c([nH]c3cnccc32)c1Cl [Example 85]
700	O=C(Cc1cccs1)Nc1cc(Cl)cc2c1[nH]c1cnccc12 [Example 86]
750	O=C(Nc1cc(Cl)cc2c1[nH]c1cnccc12)c1ccccn1 [Example 87]
280	O=C(Nc1cc(Cl)cc2c1[nH]c1cnccc12)c1cnccn1 [Example 88]
570	O=C(Nc1cc(Cl)cc2c1[nH]c1cnccc12)c1ccc2c(c1)OCO2 [Example 89]
1400	O=C(COCc1ccccc1)Nc1cc(Cl)cc2c1[nH]c1cnccc12 [Example 90]
2300	O=C1COc2c(Cl)cc3c([nH]c4cnccc43)c2N1 [Example 91]
400	Clc1cc2c([nH]c3cnccc32)c(Cl)c1OC1CCCC1 [Example 92]
1300	CCN(CC)CCOc1c(Cl)cc2c([nH]c3cnccc32)c1Cl [Example 93]
640	COc1c([N+](=O)[O-])cc2c([nH]c3cnccc32)c1Cl [Example 94]
1000	COc1c(N)cc2c([nH]c3cnccc32)c1Cl [Example 95]
690	O=C(Cc1cccnc1)Nc1cc(Cl)cc2c1[nH]c1cnccc12 [Example 97]
900	CN(C)CC(=O)Nc1cc(Cl)cc2c1[nH]c1cnccc12 [Example 98]
90	O=C1CC[C@H](C(=O)Nc2cc(Cl)cc3c2[nH]c2cnccc23)N1 [Example 99]
310	O=C1CC[C@@H](C(=O)Nc2cc(Cl)cc3c2[nH]c2cnccc23)N1 [Example 103]
1000	O=C(Nc1cc(Cl)cc2c1[nH]c1cnccc12)c1cccnc1O [Example 104]
400	CC(C)(C)c1cc(C(=O)Nc2cc(Cl)cc3c2[nH]c2cnccc23)n(Cc2ccccc2)n1 [Example 107]
2100	O=C(Cc1ccccn1)Nc1cc(Cl)cc2c1[nH]c1cnccc12 [Example 108]
2100	O=C(Nc1cc(Cl)cc2c1[nH]c1cnccc12)c1cccc(=O)[nH]1 [Example 109]
540	O=C1CC[C@H](C(=O)Nc2cc(Cl)cc3c2[nH]c2cnccc23)O1 [Example 111]
930	O=S(=O)(Nc1cc(Cl)cc2c1[nH]c1cnccc12)c1ccc(F)cc1 [Example 112]
640	O=C(Nc1cc(Cl)cc2c1[nH]c1cnccc12)c1ccc(Br)cc1 [Example 113]
2100	COc1c(Cl)cc2c([nH]c3cnccc32)c1NC(=O)c1ccc(F)cc1 [Example 114]
1800	O=C(Nc1cc(Cl)cc2c1[nH]c1cnccc12)c1ccc(Cl)cc1 [Example 116]
670	O=C(Nc1cc(Cl)cc2c1[nH]c1cnccc12)C1CCCC1 [Example 117]

Reference: US7348336B2 (Sanofi-Aventis Deutschland GmbH, priority 2000, dated 2008)
